Measurements reported in publication PMC11725581, “Developing novel Lin28 inhibitors by computer aided drug design” (Cell Death Discovery, 2025).

How the values were obtained:
DuNE cells = assay: Cell cycle analysis by FACS, DuNE cells; format: cell-based; conditions: 0-20 μM, 144 h
Source text: To further compare the potency of Ln268 with C1632 and Ln15 in suppressing DuNE cell growth, we also measured cell growth rates under […] conditions (Fig. 4E). […] In addition, we used FACS assays to confirm that Ln268-mediated cell growth inhibition was due to its effects on blocking cancer cell cycling from the G1 phase towards the S and M phases (Fig. 4F). […] In summary, we confirmed that Ln268 is a potent Lin28 inhibitor that blocks the CSC phenotype of cancer cells, suppresses formation of 3D colonies, and inhibits cancer cell proliferation.

ANA3CA cells = assay: Cell proliferation (Incucyte), ANA3CA; format: cell-based; conditions: Lin28a/Lin28b-positive
Source text: (§1) To further evaluate whether the suppressive effects of Ln268 are specific to Lin28-positive cancer cells, we compared cell growth rates of DuNE (Lin28b-positive line) and Du145 (Lin28b-negative line), both of which are Lin28a-negative. DuNE has the same genomic background with Du145 except for the transduction of the SRRM4 gene. […] Furthermore, Ln268 had no impact on the cell growth of DuNE(KO) cells, in which the Lin28b gene was knocked out by CRISPR (Fig. 5C). […] We also tested several ovarian and endometrial cancer cell lines with different Lin28a and Lin28b expression profiles (Fig. 5E).

HEC50 cells = assay: Cell proliferation (Incucyte), HEC50; format: cell-based; conditions: Lin28a/Lin28b-negative
Source text: as §1

[1] = test system: Du145 (Lin28b-negative line); assay: Cell proliferation (Incucyte), Du145 cells; format: cell-based
Source text: as §1

[2] = test system: Lin28b-mediated SG formation in DuNE cells; assay: Stress granule (SG) formation induced by ARS, confocal microscopy; format: cell-based
Source text: To assess whether Lin28 inhibitors can inhibit SG formation in cancer cells, we induced SGs in DuNE cells using ARS. These cells were co-treated with either vehicle, C1632, Ln15, or Ln268 (Fig. 6F). As a positive control, RNase was also included since it is known to prevent Lin28-mediated SG formation. Under vehicle treatment condition, Lin28b was primarily localized within SGs; however, in the presence of Lin28 inhibitors, its subcellular distribution became more diffuse, extending beyond SGs. SG formation involves a dynamic process in which initial smaller granules coalesce to form larger, mature SGs through phase separation (Fig. 6F).
Cells were fixed with 4% paraformaldehyde, treated in 0.25% Triton X-100 for 15 mins, and mounted with DAPI staining mount (Vector Labs; Burlingame, USA). Cell images were captured by confocal microscopy at 63X magnification (Zeiss; Germany).

ES-2 cells = assay: Cell proliferation (Incucyte), ES-2; format: cell-based; conditions: Lin28a/Lin28b-negative
Source text: as §1

Lin28b ZKD = target: T1, Lin28b ZKD (Homo sapiens, UniProt Q6ZN17); assay: Fluorescence polarization (FP) assay, Lin28b ZKD:pre-let-7d interaction; format: binding; conditions: FP / EMSA
T1 sequence (Q6ZN17 127-166 limits assumed): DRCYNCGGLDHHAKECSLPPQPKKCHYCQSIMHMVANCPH
Method: We conducted two biochemical assays, FP and EMSA, to validate the predicted compounds. To optimize the FP assays, we performed a series of titrations using: (1) FAM-labeled pre-let-7d RNA probe, (2) Lin28b ZKD protein, and (3) non-labeled pre-let-7 probe as a competitor (Fig. 2A). These assays yielded the optimal concentrations required for the subsequent FP validation assays, namely 10 nM for the pre-let-7d probe and 1 μM for Lin28b ZKD protein. The FP signal from the free probe was set as 0%, while the signal from the probe-ZKD complex in the absence of compounds was set as 100%. C1632 was used as a control Lin28 inhibitor (Fig. 2B). […] Since the docking pocket is almost identical between Lin28a and Lin28b homologs, we repeated the FP assays using Lin28a ZKD (Figure S2).
The fluorescein amidites (FAM)-tagged pre-Let-7d probe with the sequence of […] was purchased from Integrated DNA Technologies (IDT). The probe at the concentrations ranging from 1 nM to 50 uM was incubated with Lin28B (ZKD) or Lin28 (CSD+ZKD) to a final volume of 30 uL at room temperature for 20 min. To read the fluorescence, a TECAN 500 machine was used. Fluorescence polarization was calculated using the following equation:
P=(Fparrallel−Fperpendicular)/(Fparrallel+FperpendicularP)
where P is the fluorescence polarization reading, F parallel is the fluorescence intensity acquired from the parallel excitation plane, and F perpendicular is the fluorescence intensity acquired from the perpendicular direction of the excitation plane. The total fluorescence intensity is estimated using the following equation:
F=Fparallel+2FperpendicularF.
All the raw FP signal data from the TECAN 500 FP results were analyzed using Prism 8.0 (GraphPad, San Diego, CA, USA); normalized curves were plotted and IC50 values were estimated. All FP data were repeated three to five times.
Figure S1. Lin28b ZKD protein was incubated with the indicated compounds at the concentration of 0, 0.1, 0.2, 0.5, 1, 2, 5, 10, 20, 50, 100, and 200uM. FP signals were measured and plotted relative to that from vehicle.

TOV-112D cells = assay: Cell proliferation (Incucyte), TOV-112D; format: cell-based; conditions: Lin28a/Lin28b-positive
Source text: as §1

O=c1[nH]c(Nc2ccc(F)cc2O)cs1 [Ln268]
cell cycle effect (FACS) (DuNE cells): arrested in G2/M in a dose-dependent manner
effect on growth of ANA3CA cells (ANA3CA cells): suppressed the growth
effect on growth of HEC50 cells (HEC50 cells): no or minimal impacts
effect on Du145 cell growth and cell morphology [1]: no impact
effect on aggregation of smaller granules (<20 pixels) into larger SGs (>50 pixels) [2]: the most suppressive effect
effect on growth of ES-2 cells (ES-2 cells): no or minimal impacts
activity in protein-based assays (Lin28b ZKD): performed less effectively than Ln15
effect on growth of TOV-112D cells (TOV-112D cells): suppressed the growth
